From publication PMC11912475 (Journal of Medicinal Chemistry, 2025)

Key:
[1] = target: GluN1-GluN2A NMDAR subtype (Homo sapiens, UniProt Q05586+Q12879); assay: FLIPR/Ca2+ assay, NMDAR GluN1-GluN2A subtype in CHO cells; format: cell-based; conditions: CHO cells, 10 μM L-glutamate and 10 μM glycine; n.d. = 50% of inhibition could not be reached at the highest concentration used
Procedure, shortened: (§1)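 Fluo-4-loaded CHO cells (with probenecid and 500 μM ketamine during loading) stimulated with 10 μM L-glutamate plus 10 μM glycine added together with compounds, in HEPES buffer pH 7.3 with 2 mM CaCl2.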

[2] = target: T1, GluN1-GluN2B NMDAR subtype (Homo sapiens, UniProt Q05586+Q13224); assay: FLIPR/Ca2+ assay, NMDAR GluN1-GluN2B subtype in CHO cells; format: cell-based; conditions: CHO cells, 10 μM L-glutamate and 10 μM glycine; n.d. = 50% of inhibition could not be reached at the highest concentration used
T1 construct: host or cells: NR1-2B-CHO cells, constitutive expression
Procedure, shortened: as §1

[3] = target: GluN1-GluN2C NMDAR subtype (Homo sapiens, UniProt Q05586+Q14957); assay: FLIPR/Ca2+ assay, NMDAR GluN1-GluN2C subtype in CHO cells; format: cell-based; conditions: CHO cells, 10 μM L-glutamate and 10 μM glycine; n.d. = 50% of inhibition could not be reached at the highest concentration used
Procedure, shortened: as §1

[4] = target: GluN1-GluN2D NMDAR subtype (Homo sapiens, UniProt O15399+Q05586); assay: FLIPR/Ca2+ assay, NMDAR GluN1-GluN2D subtype in CHO cells; format: cell-based; conditions: CHO cells, 10 μM L-glutamate and 10 μM glycine; n.d. = 50% of inhibition could not be reached at the highest concentration used
Procedure, shortened: as §1

[5] = tested on: Glutamate, NMDA, Phencyclidine binding site; assay: Radioligand displacement binding assay, [3H]TCP, NMDA; design: species or system Wistar rat
Histamine H1 = target: T2, Histamine H1 (Homo sapiens, UniProt P35367); assay: Radioligand displacement binding assay, [3H]pyrilamine, H1
T2 construct: host or cells: CHO-K1

Muscarinic M5 = target: T3, Muscarinic M5 (Homo sapiens, UniProt P08912); assay: Radioligand displacement binding assay, [3H]N-methylscopolamine, M5
T3 construct: host or cells: CHO-K1
T3 sequence (P08912 1-532): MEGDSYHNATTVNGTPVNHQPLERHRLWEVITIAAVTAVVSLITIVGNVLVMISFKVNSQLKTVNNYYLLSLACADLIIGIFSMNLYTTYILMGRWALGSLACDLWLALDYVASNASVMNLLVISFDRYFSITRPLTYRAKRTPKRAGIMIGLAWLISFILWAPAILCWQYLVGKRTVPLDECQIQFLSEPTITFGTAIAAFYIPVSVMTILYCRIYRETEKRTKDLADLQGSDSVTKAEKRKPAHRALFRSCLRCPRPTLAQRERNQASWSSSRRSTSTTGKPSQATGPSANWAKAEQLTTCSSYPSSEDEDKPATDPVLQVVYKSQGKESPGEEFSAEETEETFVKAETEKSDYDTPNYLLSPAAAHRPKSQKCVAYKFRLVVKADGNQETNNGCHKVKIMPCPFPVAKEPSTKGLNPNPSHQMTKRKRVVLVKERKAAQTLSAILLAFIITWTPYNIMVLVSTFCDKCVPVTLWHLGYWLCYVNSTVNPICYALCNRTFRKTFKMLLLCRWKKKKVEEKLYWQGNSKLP

μ opioid receptor (MOP) = target: T4, μ opioid receptor (MOP) (Homo sapiens, UniProt P35372); assay: biochemical; format: binding; conditions: for inhibition at 0.3 µM / inhibition at 3 µM: read-out: % inhibition of binding, MOP
T4 construct: host or cells: CHO-K1

Serotonin 5-HT1A = target: T5, Serotonin 5-HT1A (Homo sapiens, UniProt P08908); assay: Radioligand displacement binding assay, [3H]8-OH-DPAT, 5-HT1A
T5 construct: host or cells: CHO-K1
T5 sequence (P08908 1-422): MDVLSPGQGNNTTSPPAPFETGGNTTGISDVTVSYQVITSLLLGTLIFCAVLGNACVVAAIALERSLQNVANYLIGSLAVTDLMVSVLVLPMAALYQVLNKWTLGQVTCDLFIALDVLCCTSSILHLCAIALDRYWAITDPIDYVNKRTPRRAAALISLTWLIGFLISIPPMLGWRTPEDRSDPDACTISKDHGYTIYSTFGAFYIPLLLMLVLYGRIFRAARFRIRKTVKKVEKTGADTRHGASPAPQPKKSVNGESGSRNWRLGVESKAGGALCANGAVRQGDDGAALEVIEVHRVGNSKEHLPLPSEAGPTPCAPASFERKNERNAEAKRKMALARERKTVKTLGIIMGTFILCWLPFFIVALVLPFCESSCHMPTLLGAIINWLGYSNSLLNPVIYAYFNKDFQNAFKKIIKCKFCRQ

Serotonin 5-HT2A = target: T6, Serotonin 5-HT2A (Homo sapiens, UniProt P28223); assay: Radioligand displacement binding assay, [3H]ketanserin, 5-HT2A
T6 construct: host or cells: CHO-K1

Serotonin 5-HT2C = target: T7, Serotonin 5-HT2C (Homo sapiens, UniProt P28335); assay: Radioligand displacement binding assay, [3H]mesulergine, 5-HT2C
T7 construct: host or cells: CHO-K1
T7 sequence (P28335 33-458): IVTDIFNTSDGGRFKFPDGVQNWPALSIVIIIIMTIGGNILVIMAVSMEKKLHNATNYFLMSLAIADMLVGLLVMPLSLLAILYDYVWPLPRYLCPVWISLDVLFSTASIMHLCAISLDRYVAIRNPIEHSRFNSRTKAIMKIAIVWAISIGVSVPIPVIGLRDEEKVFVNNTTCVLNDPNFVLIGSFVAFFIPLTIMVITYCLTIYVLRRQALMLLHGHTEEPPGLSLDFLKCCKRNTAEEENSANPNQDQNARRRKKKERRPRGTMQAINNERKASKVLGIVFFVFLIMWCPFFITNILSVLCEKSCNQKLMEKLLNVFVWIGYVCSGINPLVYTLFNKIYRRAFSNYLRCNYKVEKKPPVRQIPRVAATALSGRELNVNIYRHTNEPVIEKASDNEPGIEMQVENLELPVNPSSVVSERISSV

Serotonin 5-HT5A = target: T8, Serotonin 5-HT5A (Homo sapiens, UniProt P47898); assay: Radioligand displacement binding assay, [3H]LSD, 5-HT5A
T8 construct: host or cells: CHO-K1

Serotonin 5-HT7 = target: T9, Serotonin 5-HT7 (Homo sapiens, UniProt P34969); assay: Radioligand displacement binding assay, [3H]LSD, 5-HT7
T9 construct: host or cells: CHO-K1

Sigma σ1 = target: T10, Sigma σ1 (Homo sapiens, UniProt Q99720); assay: Radioligand displacement binding assay, [3H]pentazocine, sigma σ1
T10 construct: Sigma σ1; Source: Human Jurkat cells; host or cells: Jurkat

[6] = target: T11, Norepinephrine transporter NET (Homo sapiens, UniProt P23975); assay: Radioligand displacement binding assay, [125I]RTI-55, NET
T11 construct: host or cells: MDCK

[7] = target: T12, Serotonin transporter SERT (Homo sapiens, UniProt P31645); assay: Radioligand displacement binding assay, [3H]paroxetine, SERT
T12 construct: host or cells: HEK-293
T12 sequence (P31645 whole entry): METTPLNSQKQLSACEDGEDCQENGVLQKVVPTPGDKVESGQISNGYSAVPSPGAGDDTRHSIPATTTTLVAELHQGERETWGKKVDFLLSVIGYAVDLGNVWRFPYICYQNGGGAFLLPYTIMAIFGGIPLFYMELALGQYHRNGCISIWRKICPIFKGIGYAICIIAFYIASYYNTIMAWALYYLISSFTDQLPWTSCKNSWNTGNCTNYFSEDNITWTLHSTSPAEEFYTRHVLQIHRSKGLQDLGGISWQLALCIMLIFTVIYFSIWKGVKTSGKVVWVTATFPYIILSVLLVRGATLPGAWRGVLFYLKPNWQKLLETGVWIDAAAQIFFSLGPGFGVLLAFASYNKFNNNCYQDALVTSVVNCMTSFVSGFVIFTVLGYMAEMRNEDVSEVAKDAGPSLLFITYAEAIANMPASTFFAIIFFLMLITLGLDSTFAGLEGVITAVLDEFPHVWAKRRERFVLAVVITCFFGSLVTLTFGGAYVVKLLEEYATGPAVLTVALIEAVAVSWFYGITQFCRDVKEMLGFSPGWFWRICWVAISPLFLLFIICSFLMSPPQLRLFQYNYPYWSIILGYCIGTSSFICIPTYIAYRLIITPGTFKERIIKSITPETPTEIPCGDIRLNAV

T11 sequence (P23975 whole entry): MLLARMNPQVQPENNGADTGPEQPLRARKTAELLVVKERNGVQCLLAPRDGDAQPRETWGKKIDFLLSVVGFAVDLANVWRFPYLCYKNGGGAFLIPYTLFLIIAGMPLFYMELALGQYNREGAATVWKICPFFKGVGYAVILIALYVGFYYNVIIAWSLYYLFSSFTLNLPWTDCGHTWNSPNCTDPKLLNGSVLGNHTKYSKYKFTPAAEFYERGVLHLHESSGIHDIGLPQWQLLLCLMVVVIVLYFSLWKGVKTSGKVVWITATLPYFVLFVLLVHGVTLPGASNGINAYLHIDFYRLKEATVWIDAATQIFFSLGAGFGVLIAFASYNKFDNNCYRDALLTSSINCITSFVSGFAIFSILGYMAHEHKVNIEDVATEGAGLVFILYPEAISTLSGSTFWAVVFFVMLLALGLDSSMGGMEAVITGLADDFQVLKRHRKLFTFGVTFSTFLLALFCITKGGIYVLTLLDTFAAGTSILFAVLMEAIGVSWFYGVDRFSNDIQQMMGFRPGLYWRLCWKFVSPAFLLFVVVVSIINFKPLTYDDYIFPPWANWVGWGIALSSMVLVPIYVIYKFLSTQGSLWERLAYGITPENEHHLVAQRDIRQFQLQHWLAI
T6 sequence (P28223 whole entry): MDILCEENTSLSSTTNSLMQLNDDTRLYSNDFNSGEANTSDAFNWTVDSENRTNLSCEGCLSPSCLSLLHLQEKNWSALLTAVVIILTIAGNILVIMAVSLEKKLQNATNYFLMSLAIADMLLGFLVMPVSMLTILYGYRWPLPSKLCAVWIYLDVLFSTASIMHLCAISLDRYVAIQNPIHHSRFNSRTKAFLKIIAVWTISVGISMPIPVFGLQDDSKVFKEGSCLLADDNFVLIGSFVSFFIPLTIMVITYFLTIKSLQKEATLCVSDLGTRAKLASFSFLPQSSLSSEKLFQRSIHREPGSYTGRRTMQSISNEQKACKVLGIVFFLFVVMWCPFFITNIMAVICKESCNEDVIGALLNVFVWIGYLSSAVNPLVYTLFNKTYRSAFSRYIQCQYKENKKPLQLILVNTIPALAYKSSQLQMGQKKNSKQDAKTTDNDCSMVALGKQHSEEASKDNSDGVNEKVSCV
T4 sequence (P35372 whole entry): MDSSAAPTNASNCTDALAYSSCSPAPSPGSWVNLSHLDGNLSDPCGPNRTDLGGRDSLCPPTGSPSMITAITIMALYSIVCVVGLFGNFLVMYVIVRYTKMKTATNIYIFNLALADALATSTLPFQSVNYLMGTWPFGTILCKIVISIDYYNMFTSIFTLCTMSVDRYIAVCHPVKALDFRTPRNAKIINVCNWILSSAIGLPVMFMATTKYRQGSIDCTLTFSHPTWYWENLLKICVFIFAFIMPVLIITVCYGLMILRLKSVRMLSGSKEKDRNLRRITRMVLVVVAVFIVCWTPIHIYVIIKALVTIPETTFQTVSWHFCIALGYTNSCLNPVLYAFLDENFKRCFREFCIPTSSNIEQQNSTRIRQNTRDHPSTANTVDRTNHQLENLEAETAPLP
T2 sequence (P35367 whole entry): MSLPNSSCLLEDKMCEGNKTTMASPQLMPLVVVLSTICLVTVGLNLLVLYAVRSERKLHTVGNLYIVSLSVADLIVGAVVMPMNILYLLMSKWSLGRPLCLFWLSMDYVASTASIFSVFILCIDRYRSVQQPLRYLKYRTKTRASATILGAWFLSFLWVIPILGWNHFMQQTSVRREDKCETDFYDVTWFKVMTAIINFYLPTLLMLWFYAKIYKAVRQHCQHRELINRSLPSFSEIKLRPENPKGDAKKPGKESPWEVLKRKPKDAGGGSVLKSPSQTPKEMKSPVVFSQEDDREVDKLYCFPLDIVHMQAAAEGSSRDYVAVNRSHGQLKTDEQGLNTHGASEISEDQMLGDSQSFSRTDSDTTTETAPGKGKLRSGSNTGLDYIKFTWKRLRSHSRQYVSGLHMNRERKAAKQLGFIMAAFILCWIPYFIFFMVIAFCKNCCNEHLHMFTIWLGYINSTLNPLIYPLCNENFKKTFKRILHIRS
T9 sequence (P34969 whole entry): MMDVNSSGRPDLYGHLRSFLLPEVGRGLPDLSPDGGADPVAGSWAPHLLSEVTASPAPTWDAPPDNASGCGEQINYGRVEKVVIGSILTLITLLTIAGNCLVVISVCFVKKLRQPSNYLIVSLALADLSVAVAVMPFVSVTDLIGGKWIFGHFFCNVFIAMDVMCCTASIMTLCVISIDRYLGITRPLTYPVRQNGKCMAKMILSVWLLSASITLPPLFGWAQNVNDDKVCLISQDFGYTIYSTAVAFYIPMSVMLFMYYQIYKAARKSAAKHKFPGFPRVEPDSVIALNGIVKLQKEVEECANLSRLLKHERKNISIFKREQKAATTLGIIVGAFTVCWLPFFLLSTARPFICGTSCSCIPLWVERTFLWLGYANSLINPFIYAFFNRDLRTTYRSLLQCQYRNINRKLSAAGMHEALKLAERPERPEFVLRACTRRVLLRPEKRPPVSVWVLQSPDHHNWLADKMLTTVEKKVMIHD
T8 sequence (P47898 whole entry): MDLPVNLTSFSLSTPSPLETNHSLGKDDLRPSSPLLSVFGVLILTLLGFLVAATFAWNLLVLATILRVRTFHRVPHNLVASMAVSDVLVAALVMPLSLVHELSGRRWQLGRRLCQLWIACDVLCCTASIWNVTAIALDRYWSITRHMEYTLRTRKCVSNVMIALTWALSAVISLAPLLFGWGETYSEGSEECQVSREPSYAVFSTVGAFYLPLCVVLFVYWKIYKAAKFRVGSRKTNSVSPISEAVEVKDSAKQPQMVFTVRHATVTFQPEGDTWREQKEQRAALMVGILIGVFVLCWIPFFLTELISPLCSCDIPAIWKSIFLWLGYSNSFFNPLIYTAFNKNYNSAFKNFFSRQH
T10 sequence (Q99720 whole entry): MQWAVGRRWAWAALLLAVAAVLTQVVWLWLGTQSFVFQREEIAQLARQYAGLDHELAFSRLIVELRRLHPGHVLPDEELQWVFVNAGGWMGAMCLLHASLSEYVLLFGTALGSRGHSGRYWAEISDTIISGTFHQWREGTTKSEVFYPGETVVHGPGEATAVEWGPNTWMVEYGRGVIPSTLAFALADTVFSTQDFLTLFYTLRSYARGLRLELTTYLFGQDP
GluN1-GluN2D NMDAR subtype, sequence (O15399 28-1336, other chains not shown): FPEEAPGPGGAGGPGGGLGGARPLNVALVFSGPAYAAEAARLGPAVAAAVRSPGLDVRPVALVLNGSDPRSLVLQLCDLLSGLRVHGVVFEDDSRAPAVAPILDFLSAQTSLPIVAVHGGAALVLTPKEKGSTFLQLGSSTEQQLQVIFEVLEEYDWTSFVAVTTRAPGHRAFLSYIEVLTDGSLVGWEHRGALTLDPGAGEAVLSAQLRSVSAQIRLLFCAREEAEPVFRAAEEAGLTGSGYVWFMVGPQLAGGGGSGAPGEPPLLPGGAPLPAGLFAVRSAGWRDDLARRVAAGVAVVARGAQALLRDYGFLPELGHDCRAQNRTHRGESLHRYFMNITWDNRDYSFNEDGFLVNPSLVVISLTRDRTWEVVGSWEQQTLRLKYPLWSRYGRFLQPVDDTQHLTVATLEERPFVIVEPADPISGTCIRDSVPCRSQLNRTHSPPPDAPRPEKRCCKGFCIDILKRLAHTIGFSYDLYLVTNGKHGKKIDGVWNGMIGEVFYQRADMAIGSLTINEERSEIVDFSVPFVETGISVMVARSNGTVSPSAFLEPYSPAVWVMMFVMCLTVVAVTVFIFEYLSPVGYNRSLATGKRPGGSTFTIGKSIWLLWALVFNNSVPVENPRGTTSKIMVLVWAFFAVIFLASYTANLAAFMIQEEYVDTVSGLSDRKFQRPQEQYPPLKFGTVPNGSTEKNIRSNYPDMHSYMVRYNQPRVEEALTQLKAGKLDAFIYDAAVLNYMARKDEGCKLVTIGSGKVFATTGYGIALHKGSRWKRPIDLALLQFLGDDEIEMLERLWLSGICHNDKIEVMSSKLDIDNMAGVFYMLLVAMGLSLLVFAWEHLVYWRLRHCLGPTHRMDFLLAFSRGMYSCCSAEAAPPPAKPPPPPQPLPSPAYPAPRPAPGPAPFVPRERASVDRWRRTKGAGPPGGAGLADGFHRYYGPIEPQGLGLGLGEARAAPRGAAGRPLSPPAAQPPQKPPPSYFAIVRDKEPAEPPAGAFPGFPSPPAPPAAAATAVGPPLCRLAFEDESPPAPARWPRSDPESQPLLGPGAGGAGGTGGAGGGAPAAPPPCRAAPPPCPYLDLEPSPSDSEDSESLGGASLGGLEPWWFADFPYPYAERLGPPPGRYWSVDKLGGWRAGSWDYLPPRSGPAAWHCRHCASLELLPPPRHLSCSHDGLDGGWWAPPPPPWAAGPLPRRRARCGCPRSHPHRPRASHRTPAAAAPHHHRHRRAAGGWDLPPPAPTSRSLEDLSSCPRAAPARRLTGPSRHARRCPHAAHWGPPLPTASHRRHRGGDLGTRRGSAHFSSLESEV

Compound | pIC50 (mean ± SEM) GluN1-GluN2A [1] | pIC50 (mean ± SEM) GluN1-GluN2B [2] | pIC50 (mean ± SEM) GluN1-GluN2C [3] | pIC50 (mean ± SEM) GluN1-GluN2D [4] | % inhibition of binding, NMDA ([5]; 1 μM) | inhibition at 10 µM (Histamine H1) | inhibition at 30 µM (Histamine H1) | inhibition at 1 µM (Muscarinic M5) | inhibition at 10 µM (Muscarinic M5) | inhibition at 0.3 µM (μ opioid receptor (MOP)) | inhibition at 3 µM (μ opioid receptor (MOP)) | inhibition at 0.3 µM (Serotonin 5-HT1A) | inhibition at 3 µM (Serotonin 5-HT1A) | inhibition at 0.3 µM (Serotonin 5-HT2A) | inhibition at 3 µM (Serotonin 5-HT2A) | inhibition at 0.3 µM (Serotonin 5-HT2C) | inhibition at 3 µM (Serotonin 5-HT2C) | inhibition at 1 µM (Serotonin 5-HT5A) | inhibition at 10 µM (Serotonin 5-HT5A) | inhibition at 1 µM (Serotonin 5-HT7) | also measured
CC[C@H](O)C(C[C@H](C)NC)(c1ccccc1)c1ccccc1 [(3S,6S)-NML, (3S,6S)-6-(methylamino)-4,4-diphenylheptan-3-ol] | 4.6 ± 0.062 | 4.7 ± 0.080 | 4.7 ± 0.042 | 4.6 ± 0.065 | 9% | 33% | 65% | 2% | 15% | 65% | 95% | -4% | 1% | -10% | -11% | 5% | 28% | 1% | 10% | 12% | displacement at the histamine H1 receptor, in words (Histamine H1; concentration not given): significant displacement percentages; displacement at the MOP, in words (μ opioid receptor (MOP); concentration not given): high displacement percentages; inhibition at 10 µM (Serotonin 5-HT7): 23%; inhibition at 0.3 µM (Sigma σ1): 46%; inhibition at 3 µM (Sigma σ1): 77%; displacement at the Sigma-1 (σ1) receptor, in words (Sigma σ1; concentration not given): high displacement percentages; inhibition at 1 µM [6]: -12%; inhibition at 10 µM [6]: 12%; inhibition at 1 µM [7]: 2%; inhibition at 10 µM ([7]; 10 μM): 25%
CC[C@@H](O)C(C[C@@H](C)NC)(c1ccccc1)c1ccccc1 [(3R,6R)-NML, (3R,6R)-6-(methylamino)-4,4-diphenylheptan-3-ol] | 5.0 ± 0.081 | 4.8 ± 0.055 | 5.0 ± 0.048 | 5.0 ± 0.052 | 17% | 15% | 20% | 15% | 43% | 4% | 11% | -9% | -10% | 0% | -3% | 18% | 16% | 13% | 63% | 4% | % inhibition of binding, NMDA ([5]; 10 μM): 57%; pKi (mean ± SEM) [3H]TCP, NMDA ([5]; Wistar rat cerebral cortex, 4.0 nM [3H]TCP): 5.56 ± 0.07; pKi (mean ± SEM) [3H]diprenorphine, MOP (μ opioid receptor (MOP)): 5.64 ± 0.09; inhibition at 10 µM (Serotonin 5-HT7): 5%; inhibition at 0.3 µM (Sigma σ1): 4%; inhibition at 3 µM (Sigma σ1): 33%; inhibition at 1 µM [6]: -2%; inhibition at 10 µM [6]: 14%; inhibition at 1 µM [7]: 18%; % inhibition of binding, SERT ([7]; 10 μM): displaced; inhibition at 10 µM ([7]; 10 μM): 69%
